One assay relates to Streptococcus. The assay can be described thus: GAS bacterial viability reduction – luminescence, BacTiter-Glo, strain UMAA2166, counter-screen for streptokinase expression inhibitor project, dose response (AID 2477). It is filed as functional, organism-based. On the technique in general: A counterscreen serves to expose hits that act by an unwanted route or on another target.

The target of a further assay is T1, Streptokinase A (Streptococcus pyogenes serotype M1, UniProt P10520).
T1 sequence (P10520 whole entry): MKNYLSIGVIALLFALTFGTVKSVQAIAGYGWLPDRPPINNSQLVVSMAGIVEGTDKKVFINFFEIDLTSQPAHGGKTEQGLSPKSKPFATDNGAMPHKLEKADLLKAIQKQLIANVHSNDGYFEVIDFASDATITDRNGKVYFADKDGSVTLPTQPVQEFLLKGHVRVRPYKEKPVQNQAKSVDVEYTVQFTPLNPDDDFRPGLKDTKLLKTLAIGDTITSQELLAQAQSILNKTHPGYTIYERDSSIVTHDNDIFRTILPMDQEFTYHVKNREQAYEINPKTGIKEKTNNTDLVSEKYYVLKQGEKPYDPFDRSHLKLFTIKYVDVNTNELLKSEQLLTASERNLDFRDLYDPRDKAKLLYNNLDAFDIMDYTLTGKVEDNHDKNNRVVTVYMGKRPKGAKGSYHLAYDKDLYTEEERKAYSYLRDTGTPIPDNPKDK
The assay can be described thus: Absorbance Microorganism-Based Dose Response Follow up to Identify Inhibitors of Streptokinase Expression. [Related pubchem assays: 1677 (Project Summary), 1915, 1914, 1902 (Retest at Dose), 1900 (Counter Screen), 1662 (Primary HTS)]. It is filed as functional, Streptococcus pyogenes M1 GAS.

For another assay, the target named is Genome polyprotein (dengue virus type 2, UniProt P29990). In words: flavivirus cap methylation enzyme inhibition – biochemical, confirmation dose response, primary screen (AID 588689). Type of assay: functional.
Chain of Genome polyprotein (P29990 2492-3391 limits assumed): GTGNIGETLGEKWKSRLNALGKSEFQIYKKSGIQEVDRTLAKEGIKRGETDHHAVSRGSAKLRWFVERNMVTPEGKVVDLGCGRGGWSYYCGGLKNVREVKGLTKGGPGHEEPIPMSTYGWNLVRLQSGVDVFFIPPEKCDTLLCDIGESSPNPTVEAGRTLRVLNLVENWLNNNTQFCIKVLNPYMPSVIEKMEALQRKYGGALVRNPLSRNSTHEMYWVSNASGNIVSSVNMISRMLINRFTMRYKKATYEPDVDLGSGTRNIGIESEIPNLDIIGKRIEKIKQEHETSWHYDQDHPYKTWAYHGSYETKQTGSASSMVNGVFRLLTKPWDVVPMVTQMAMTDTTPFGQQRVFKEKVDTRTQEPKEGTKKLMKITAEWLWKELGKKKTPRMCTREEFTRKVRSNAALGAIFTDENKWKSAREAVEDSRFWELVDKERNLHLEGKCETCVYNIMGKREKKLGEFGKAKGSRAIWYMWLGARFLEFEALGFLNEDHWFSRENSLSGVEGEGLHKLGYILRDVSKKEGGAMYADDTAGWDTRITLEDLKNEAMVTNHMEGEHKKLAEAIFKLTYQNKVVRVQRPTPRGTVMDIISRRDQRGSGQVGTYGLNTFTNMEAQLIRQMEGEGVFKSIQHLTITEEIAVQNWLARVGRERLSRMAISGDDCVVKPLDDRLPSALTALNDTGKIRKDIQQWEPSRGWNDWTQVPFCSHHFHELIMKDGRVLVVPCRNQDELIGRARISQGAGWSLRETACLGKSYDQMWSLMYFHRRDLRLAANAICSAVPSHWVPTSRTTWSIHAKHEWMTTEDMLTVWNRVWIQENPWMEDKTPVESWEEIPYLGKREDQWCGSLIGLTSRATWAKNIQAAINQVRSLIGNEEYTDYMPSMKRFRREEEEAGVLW
Assay [1] addresses Induced myeloid leukemia cell differentiation protein Mcl-1 (Homo sapiens, UniProt Q07820). The assay can be described thus: blockers of MCL1 binding to BIM peptide – biochemical, fluorescence polarization, BIM-BH3 peptide, 1536-well, dose response (AID 2217). For orientation: Fluorescence polarisation rises when a labelled molecule tumbles more slowly, as on binding a larger partner.

In another assay the target is Bcl-2-like protein 1 (Homo sapiens, UniProt Q07817). The assay can be described thus: blockers of BCLXL peptide binding – biochemical, fluorescence polarization, 1536-well, selectivity assay for MCL1 inhibitor project, dose response (AID 2218).
Chain of Bcl-2-like protein 1 (Q07817 whole entry): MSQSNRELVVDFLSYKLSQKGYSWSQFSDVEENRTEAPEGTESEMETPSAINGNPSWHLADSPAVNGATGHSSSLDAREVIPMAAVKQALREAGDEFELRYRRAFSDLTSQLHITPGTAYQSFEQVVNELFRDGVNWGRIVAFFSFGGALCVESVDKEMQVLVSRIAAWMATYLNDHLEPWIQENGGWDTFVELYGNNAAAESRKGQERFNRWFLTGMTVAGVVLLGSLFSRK
The next assay has as its target T2, Caspase-6 (Homo sapiens, UniProt P55212).
T2 sequence (P55212 whole entry): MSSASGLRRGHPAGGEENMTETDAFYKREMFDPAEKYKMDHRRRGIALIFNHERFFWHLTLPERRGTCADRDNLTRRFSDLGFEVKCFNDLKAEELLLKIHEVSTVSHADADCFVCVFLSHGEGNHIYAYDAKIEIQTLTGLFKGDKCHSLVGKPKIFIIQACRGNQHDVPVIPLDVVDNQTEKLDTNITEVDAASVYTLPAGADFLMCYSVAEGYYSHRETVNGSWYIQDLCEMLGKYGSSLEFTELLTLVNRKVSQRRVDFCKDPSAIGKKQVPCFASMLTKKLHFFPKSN
In words: inhibition of CASP6 peptide cleavage – biochemical, VEID-R110 fluorescence, cherry-pick, dose response (AID 720632).

The target in the next assay is T3, Bcl-2-like protein 10 (Homo sapiens, UniProt Q9HD36).
T3 sequence (Q9HD36 whole entry): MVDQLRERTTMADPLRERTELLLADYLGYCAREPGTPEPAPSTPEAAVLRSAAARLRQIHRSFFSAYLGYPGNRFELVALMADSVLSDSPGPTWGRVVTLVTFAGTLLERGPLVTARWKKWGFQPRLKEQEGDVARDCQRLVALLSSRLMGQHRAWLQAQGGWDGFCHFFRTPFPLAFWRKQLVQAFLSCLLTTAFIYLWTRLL
The assay can be described thus: Concentration-response of Bcl-B inhibitors by biochemical FP with TR3 (AID 1243). Type of assay: functional.

For assay [2], the target named is Lytic switch protein BZLF1 (Epstein-Barr virus (strain B95-8) (HHV-4) (Human herpesvirus 4), UniProt P03206). The assay can be described thus: inhibition of BZLF1 ZTA DNA binding – biochemical, fluorescence polarization, Epstein-Barr virus, 1536-well, counter-screen for EBNA-1 inhibitor project, dose response (AID 2377).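 Also: fluorescence polarization of Cy5-labelled ZRE DNA probe bound by purified Zta.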 More on the design: species or system human gammaherpesvirus 4.
Chain of Lytic switch protein BZLF1 (P03206 whole entry): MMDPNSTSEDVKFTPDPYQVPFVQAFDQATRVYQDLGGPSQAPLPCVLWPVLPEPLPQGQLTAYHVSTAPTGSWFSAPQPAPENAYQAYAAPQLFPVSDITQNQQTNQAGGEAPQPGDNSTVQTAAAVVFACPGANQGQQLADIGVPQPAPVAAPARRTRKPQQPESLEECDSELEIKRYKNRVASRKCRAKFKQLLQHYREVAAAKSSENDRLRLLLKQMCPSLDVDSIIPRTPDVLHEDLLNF

The target of assay [3] is T4, SUMO-activating enzyme (Homo sapiens, UniProt Q9UBT2). The assay can be described thus: blockers of SAE1/SAE2–UBC9 SUMO transfer – biochemical, HTRF, uHTS, primary screen (AID 2006). Type of assay: protein-complex assay. In general terms: TR-FRET usually uses a lanthanide donor and a delayed reading to cut background.
T4 sequence (Q9UBE0 whole entry): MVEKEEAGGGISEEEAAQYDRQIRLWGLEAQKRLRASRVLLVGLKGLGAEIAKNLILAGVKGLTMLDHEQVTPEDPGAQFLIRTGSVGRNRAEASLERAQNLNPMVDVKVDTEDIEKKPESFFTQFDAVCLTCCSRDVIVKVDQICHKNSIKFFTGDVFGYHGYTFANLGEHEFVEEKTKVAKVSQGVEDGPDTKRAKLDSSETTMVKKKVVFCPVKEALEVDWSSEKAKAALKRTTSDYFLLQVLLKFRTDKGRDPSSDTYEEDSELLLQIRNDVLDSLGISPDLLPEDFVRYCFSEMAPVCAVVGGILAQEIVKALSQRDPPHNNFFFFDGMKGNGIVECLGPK
T4 sequence (Q9UBT2 whole entry): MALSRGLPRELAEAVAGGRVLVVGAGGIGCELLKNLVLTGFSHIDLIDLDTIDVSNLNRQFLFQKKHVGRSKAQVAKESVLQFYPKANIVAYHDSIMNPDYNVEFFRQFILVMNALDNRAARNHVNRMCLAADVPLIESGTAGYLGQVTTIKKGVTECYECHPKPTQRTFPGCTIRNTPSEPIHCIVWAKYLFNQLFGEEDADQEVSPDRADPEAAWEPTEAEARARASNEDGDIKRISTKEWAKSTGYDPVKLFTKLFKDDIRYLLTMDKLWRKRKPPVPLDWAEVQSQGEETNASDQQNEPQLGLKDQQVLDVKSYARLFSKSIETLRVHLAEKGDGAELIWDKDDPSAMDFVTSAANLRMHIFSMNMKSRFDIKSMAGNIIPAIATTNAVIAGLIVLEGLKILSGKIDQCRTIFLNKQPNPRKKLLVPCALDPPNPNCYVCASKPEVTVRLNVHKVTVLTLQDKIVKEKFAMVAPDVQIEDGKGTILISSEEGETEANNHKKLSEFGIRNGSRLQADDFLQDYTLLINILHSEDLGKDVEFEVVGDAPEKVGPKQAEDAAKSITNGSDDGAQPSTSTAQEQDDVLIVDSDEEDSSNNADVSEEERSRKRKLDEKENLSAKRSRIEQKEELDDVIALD
In assay [4] the target is Epstein-Barr nuclear antigen 1 (Epstein-Barr virus (strain B95-8) (HHV-4) (Human herpesvirus 4), UniProt P03211). The assay can be described thus: inhibition of EBV nuclear antigen 1 DNA binding – biochemical, fluorescence polarization, 1536-well, dose response (AID 2381).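 Also: fluorescence polarization of a Cy5 DNA probe bound by EBNA-1 protein.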 More on the design: species or system human gammaherpesvirus 4.
Assay [5] deals with T4, SUMO-activating enzyme. In words: blockers of UBC9-mediated SUMO conjugation – biochemical, AlphaScreen, SUMOylation inhibitor project, confirmation (AID 2018). It is filed as functional.
A short description of assay [6]: viability of uninfected HEp-2 cells – cell-based, HTS, cytotoxicity control for RSV inhibitor project, dose response (AID 2410). It is filed as functional. The conditions noted are these: human respiratory syncytial virus.
For the next assay, the target named is Ion channel NompC (Danio rerio, UniProt Q7T1G6). In words: Fluorescence counterscreen assay for TRPML3 agonists: dose response cell-based high-throughput screening assay to identify agonists of the transient receptor potential channel N1 (TRPN1). [Related pubchem assays: 1526, 1424, 1448 ]. Type of assay: functional.
The next assay concerns the target Mucolipin-3 (Homo sapiens, UniProt Q8TDD5). The assay can be described thus: Dose response cell-based high-throughput screening assay for agonists of the transient receptor potential channel ML3 (TRPML3). [Related pubchem assays: 1526, 1424, 1448 ]. It is filed as functional.
For assay [7], the target named is 26S proteasome non-ATPase regulatory subunit 14 (Homo sapiens, UniProt O00487). The assay can be described thus: inhibition of proteasome subunit RPN11 – biochemical, fluorescence polarization, uHTS hits, confirmation (AID 602368). Type of assay: functional.
Chain of 26S proteasome non-ATPase regulatory subunit 14 (O00487 whole entry): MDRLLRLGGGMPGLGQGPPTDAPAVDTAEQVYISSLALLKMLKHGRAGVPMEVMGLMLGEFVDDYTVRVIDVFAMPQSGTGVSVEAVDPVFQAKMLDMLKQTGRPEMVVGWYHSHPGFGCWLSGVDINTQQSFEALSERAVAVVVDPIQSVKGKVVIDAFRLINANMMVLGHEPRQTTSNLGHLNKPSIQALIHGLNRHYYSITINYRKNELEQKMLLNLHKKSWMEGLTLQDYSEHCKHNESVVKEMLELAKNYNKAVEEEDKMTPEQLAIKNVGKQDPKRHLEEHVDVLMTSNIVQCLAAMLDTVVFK
The target of assay [8] is FAD-linked sulfhydryl oxidase ALR (Homo sapiens, UniProt P55789). In words: ALR-catalysed DTT oxidation blockers – biochemical, H2O2 detection, luminescence, cherry-pick, dose response (AID 493248).
Chain of FAD-linked sulfhydryl oxidase ALR (P55789 whole entry): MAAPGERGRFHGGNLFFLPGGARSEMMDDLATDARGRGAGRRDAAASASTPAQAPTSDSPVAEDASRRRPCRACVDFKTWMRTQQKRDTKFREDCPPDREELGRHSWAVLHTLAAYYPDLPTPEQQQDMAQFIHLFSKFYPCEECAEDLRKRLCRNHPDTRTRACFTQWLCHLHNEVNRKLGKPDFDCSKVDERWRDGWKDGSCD
The next assay has as its target T5, Aminopeptidase N (Plasmodium falciparum FcB1/Columbia, UniProt O96935).
T5 sequence (O96935 whole entry): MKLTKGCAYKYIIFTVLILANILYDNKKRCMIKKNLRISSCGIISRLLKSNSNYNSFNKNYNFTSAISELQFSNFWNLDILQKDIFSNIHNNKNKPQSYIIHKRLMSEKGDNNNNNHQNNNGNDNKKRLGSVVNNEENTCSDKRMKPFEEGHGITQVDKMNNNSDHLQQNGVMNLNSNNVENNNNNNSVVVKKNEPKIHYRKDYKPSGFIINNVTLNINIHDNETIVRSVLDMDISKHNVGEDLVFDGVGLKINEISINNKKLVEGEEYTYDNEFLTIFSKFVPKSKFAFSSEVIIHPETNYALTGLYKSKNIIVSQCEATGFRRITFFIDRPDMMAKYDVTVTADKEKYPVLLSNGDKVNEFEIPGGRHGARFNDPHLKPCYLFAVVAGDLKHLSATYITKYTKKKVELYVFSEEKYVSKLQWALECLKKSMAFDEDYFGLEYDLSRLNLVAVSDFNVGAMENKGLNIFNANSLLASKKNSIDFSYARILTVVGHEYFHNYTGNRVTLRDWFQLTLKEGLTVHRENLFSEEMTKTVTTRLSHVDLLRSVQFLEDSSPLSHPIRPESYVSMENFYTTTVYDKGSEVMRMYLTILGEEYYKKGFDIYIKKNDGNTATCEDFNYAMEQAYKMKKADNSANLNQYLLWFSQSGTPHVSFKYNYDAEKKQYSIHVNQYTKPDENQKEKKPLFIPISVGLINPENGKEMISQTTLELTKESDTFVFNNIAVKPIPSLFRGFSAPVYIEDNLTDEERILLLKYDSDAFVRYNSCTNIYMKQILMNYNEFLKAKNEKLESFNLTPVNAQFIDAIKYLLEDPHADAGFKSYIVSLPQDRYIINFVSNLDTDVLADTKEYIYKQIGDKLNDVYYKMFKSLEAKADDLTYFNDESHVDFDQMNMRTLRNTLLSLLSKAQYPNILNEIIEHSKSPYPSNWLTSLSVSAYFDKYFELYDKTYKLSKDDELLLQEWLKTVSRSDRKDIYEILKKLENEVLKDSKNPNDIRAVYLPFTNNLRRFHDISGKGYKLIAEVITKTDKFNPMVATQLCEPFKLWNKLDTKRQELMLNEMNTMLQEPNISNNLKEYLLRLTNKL
The assay can be described thus: malaria alanyl aminopeptidase activity blockers – biochemical, fluorogenic H-Leu-NHMec substrate, 1536-well (AID 1445). The arrangement: species or system Plasmodium falciparum 3D7, 3D7.

The target of assay [9] is 72 kDa type IV collagenase (Homo sapiens, UniProt P08253). In words: Dose Response validation of uHTS RPN11 inhibitor hits using a MMP-2 Fluorescence assay. It is filed as functional.
Chain of 72 kDa type IV collagenase (P08253 whole entry): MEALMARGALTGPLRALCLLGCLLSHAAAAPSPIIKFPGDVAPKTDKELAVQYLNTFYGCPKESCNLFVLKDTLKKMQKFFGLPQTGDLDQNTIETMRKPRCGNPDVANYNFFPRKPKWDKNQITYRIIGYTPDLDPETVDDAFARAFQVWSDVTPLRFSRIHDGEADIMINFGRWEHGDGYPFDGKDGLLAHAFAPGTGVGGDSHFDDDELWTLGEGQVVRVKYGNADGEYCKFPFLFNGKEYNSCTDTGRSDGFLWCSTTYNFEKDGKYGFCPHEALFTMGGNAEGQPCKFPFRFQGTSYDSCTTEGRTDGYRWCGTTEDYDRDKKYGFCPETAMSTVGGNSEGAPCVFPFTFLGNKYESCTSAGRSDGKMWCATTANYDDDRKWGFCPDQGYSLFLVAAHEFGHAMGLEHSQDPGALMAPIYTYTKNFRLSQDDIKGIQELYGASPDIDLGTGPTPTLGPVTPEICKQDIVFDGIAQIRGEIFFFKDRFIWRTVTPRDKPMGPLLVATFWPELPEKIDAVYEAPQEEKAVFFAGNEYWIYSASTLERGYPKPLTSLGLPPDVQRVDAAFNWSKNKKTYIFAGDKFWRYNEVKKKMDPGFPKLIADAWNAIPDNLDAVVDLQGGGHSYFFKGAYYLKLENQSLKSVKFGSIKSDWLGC
The target of another assay is Prothrombin (Bos taurus, UniProt P00735). The assay can be described thus: thrombin protease inhibitors – biochemical, fluorescence polarization, uHTS hits, dose response (AID 602369). Type of assay: functional.
Assay [10] in a line: mitochondrial function rescue without frataxin homolog – Friedreich's ataxia, plus single-dose screen, dose response (AID 1465).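 Also: yeast depleted of Yfh1p frataxin homolog grown on glycerol needing respiration; WST-1 tetrazolium dye reduction as measure of cellular dehydrogenase metabolic activity.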 It is filed as functional.

Activity calls are given as the source filed them.

Chain of Induced myeloid leukemia cell differentiation protein Mcl-1 (Q07820 whole entry): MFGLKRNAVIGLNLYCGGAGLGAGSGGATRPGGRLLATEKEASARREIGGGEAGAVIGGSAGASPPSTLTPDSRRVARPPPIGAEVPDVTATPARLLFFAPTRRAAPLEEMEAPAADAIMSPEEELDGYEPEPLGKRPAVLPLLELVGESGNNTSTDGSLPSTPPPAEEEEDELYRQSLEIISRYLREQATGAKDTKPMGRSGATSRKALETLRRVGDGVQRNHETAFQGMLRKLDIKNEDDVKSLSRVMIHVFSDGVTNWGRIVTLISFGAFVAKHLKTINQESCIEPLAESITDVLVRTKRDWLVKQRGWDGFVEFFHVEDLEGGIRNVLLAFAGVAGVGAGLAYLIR
Chain of Mucolipin-3 (Q8TDD5 whole entry): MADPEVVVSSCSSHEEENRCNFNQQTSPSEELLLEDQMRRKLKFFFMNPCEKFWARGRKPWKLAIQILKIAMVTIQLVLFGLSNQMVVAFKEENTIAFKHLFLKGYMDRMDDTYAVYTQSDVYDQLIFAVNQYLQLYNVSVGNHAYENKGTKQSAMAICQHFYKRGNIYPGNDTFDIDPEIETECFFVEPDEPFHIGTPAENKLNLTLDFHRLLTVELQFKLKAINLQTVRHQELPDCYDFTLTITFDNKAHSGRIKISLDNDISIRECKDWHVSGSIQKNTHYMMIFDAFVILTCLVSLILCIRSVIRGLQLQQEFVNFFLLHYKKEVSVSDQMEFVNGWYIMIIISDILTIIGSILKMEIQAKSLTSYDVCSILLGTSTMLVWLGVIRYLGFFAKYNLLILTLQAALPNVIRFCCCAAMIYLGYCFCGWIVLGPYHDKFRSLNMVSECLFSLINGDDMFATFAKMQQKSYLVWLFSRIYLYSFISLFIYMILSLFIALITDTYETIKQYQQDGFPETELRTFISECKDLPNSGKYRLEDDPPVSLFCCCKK

In general, EC50 refers to the concentration at which the effect is half-maximal. Regarding `N#Cc1cc(NC(=O)c2ccc(Cl)cc2)ccc1Sc1ccccc1`, the EC50 in the assay with Streptococcus is 98.8 µM (active); on Streptokinase A, 3.25 µM (active).
The term IC50 denotes the midpoint of a concentration-inhibition curve. In general, AC50 refers to the concentration at which the activity in the assay is half-maximal. Turning to `O=C(O)CN1C(=O)/C(=C\c2cc([N+](=O)[O-])ccc2OCc2ccccc2Cl)SC1=S`, the IC50 was 31.1 µM (active) on Genome polyprotein, > 109 µM (not active) in [1] and > 109 µM (not active) on Bcl-2-like protein 1. The AC50 on Caspase-6 is 12.9 µM (active).
Take `O=C(O)C1C2CC=CC2c2cc(Oc3ccccc3)cc3c2N1CC1CC=CC31` (stereo unspecified): the half-maximal effective concentration (EC50) on Bcl-2-like protein 10 was 4.13 µM (active).
Regarding `COc1ccccc1C(=O)Nc1ccc(-c2nnn(CC(=O)NCc3ccco3)n2)cc1`, the IC50 in assay [2] was > 111 µM (not active); at SUMO-activating enzyme [3], 11.8 µM (active); in [4] it was > 0.608 µM (active); at SUMO-activating enzyme [5] it was 27.2 µM (active).
As a reminder, the CC50 is the concentration giving 50% cytotoxicity. Take `CCn1nc(C)c(CN2CCCC(CO)(Cc3ccccc3)C2)c1C` (stereo unspecified): the 50% cytotoxic concentration (CC50) in assay [6] was > 50 µM (active). Besides, the IC50 in the assay “cells” was 42.9 µM (active).
Turning to `S=C(NC1CCCCC1)N1CCOCCOCCN(C(=S)NC2CCCCC2)CCOCC1`, the concentration giving a half-maximal response (EC50) is given as > 29.9 µM (not active) on Ion channel NompC and 20.4 µM (not active) at Mucolipin-3.
For `CCn1c(C)cc(/C=C2/SC(=S)N(CC(=O)O)C2=O)c1C`, the IC50 was 28.6 µM (active) in [7], 75.5 µM (active) on Aminopeptidase N, > 100 µM (inactive) in [9] and 32.9 µM (active) at Prothrombin. Further, the concentration at half-maximal activity (AC50) in assay [8] was 0.776 µM (active). Besides, the EC50 in [10] was > 100 µM (active).

Values taken from ChEMBL document CHEMBL1201862, “PubChem BioAssay data set” (2004).
